Measurements: the supplement of paper PMC11061612

Columns and labels:
[1] = compound: C=CCn1c(=O)c2cnc(Nc3ccc(N4CCN(C)CC4)cc3)nc2n1-c1cccc(C(C)(C)O)n1 [AZD1775]; details: max 3 µM
How it was run: (§1)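 Cancer cell lines were dosed for 72 hours (final DMSO typically 0.2%) after 24 hours at 37°C and 5% CO2 in 1536-well plates containing 7.5 μl DMEM/F12 or RPMI with 10% FBS. Viability came from CellTiter-Glo 2.0 luminescence, scaled between blank-well and DMSO-well means, and dose responses were fitted to a two-parameter logistic curve with a non-linear mixed effects model. The single-agent IC50 was obtained from this fit.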

[2] = compound: Cn1cnc2c(F)c(Nc3ccc(Br)cc3Cl)c(C(=O)NOCCO)cc21 [Selumetinib]; details: max 10 µM
How it was run: as §1

[3] = compound: C[C@@H](Nc1cc(F)cc(F)c1)c1cc(C(=O)N(C)C)cc2c(=O)cc(N3CCOCC3)oc12 [AZD8186]; details: max 3 µM
How it was run: as §1

[4] = compound: C[C@@H]1COCCN1C2=NC(=NC(=C2)C3(CC3)[S@](=N)(=O)C)C4=C5C=CNC5=NC=C4 [AZD6738]; details: max 10 µM
How it was run: as §1

[5] = compound: CN(C)CCCOc1ccc(-c2ccc3ncc4c(c3c2)n(C2CCOCC2)c(=O)n4C)cn1 [AZD0156]; details: max 3 µM
How it was run: as §1

[6] = compound: Cc1cc2ncnn2cc1Nc1ncc2c(n1)n(C1CCOCC1)c(=O)n2C [AZD7648]; details: max 10 µM
How it was run: as §1

[7] = compound: CCc1c2c(nc3ccc(O)cc13)-c1cc3c(c(=O)n1C2)COC(=O)[C@]3(O)CC [SN-38]; details: max 0.3 µM
How it was run: as §1

[8] = compound: CC1(C)CCC(CN2CCN(c3ccc(C(=O)NS(=O)(=O)c4ccc(NCC5CCOCC5)c([N+](=O)[O-])c4)c(Oc4cnc5[nH]ccc5c4)c3)CC2)=C(c2ccc(Cl)cc2)C1 [Venetoclax]; details: max 1 µM
How it was run: as §1

[9] = compound: CC1=CN2[C@@H](C1)C=NC3=CC(=C(C=C3C2=O)OC)OCCCCCOC4=C(C=C5C(=C4)N=C[C@@H]6CC(=CN6C5=O)C)OC [SG3199]; details: max 0.001 µM
How it was run: as §1

[10] = compound: C1CN(CCC1(C(=O)N[C@@H](CCO)C2=CC=C(C=C2)Cl)N)C3=NC=NC4=C3C=CN4 [Capivasertib]; details: max 10 µM
How it was run: as §1

[11] = compound: CC1=C(C(=CC=C1)Cl)NC(=O)C2=CN=C(S2)NC3=CC(=NC(=N3)C)N4CCN(CC4)CCO [Dasatinib]; details: max 2 µM
How it was run: as §1

[12] = compound: COc1nnc2ccc(N3CCC(c4ccc(OCCN5CCN(C)C(=O)[C@H]5C)cc4)CC3)nn12 [AZD5153]; details: max 1 µM
How it was run: as §1

[13] = compound: COc1cccc2c1C(=O)c1c(O)c3c(c(O)c1C2=O)C[C@@](O)(C(=O)CO)C[C@@H]3O[C@H]1C[C@H](N)[C@H](O)[C@H](C)O1 [Doxorubicin]; details: max 1 µM
How it was run: as §1

[14] = compound: Cc1c2c(nn1C)CSCc1cc(n(C)n1)CSc1cc(c3ccccc3c1)OCCCc1c(C(=O)O)n(C)c3c-2c(Cl)ccc13 [AZD5991]; details: max 1 µM
How it was run: as §1

[15] = compound: CC(=O)Nc1cccc(-n2c(=O)n(C3CC3)c(=O)c3c(Nc4ccc(I)cc4F)n(C)c(=O)c(C)c32)c1 [Trametinib]; details: max 1 µM
How it was run: as §1

[16] = compound: COc1cc2ncnc(Nc3ccc(F)c(Cl)c3)c2cc1OCCCN1CCOCC1 [Gefitinib]; details: max 10 µM
How it was run: as §1

[17] = compound: COc1cc(Nc2ncc3c(n2)-c2ccc(Cl)cc2C(c2c(F)cccc2OC)=NC3)ccc1C(=O)O [Alisertib]; details: max 10 µM
How it was run: as §1

[18] = compound: CC(=O)c1c(C)c2cnc(Nc3ccc(N4CCNCC4)cn3)nc2n(C2CCCC2)c1=O [Palbociclib]; details: max 10 µM
How it was run: as §1

[19] = compound: CN(CC[C@H](CSC1=CC=CC=C1)NC2=C(C=C(C=C2)S(=O)(=O)NC(=O)C3=CC=C(C=C3)N4CCC(CC4)[C@H](C5=CC=CC=C5C6=CC=C(C=C6)Cl)O)S(=O)(=O)C(F)(F)F)CCO [AZD4320]; details: max 1 µM
How it was run: as §1

[20] = compound: CCN(CCO)CCCOc1ccc2c(Nc3cc(CC(=O)Nc4cccc(F)c4)[nH]n3)ncnc2c1 [AZD2811]; details: max 1 µM
How it was run: as §1

[21] = compound: C[C@@H](c1ccc2nccn2c1)n1nnc2ncc(-c3cnn(C)c3)nc21 [Savolitinib]; details: max 1 µM
How it was run: as §1

[22] = compound: COc1cccc(OCCCN)c1-c1cc(Nc2cnc(C#N)cn2)n[nH]1 [Prexasertib]; details: max 1 µM
How it was run: as §1

[23] = compound: O=C(c1cc(Cc2n[nH]c(=O)c3ccccc23)ccc1F)N1CCN(C(=O)C2CC2)CC1 [Olaparib]; details: max 10 µM
How it was run: as §1

[24] = compound: Cc1nc(-c2cn3c(n2)-c2ccc(-c4cnn(C(C)(C)C(N)=O)c4)cc2OCC3)n(C(C)C)n1 [Taselisib]; details: max 10 µM
How it was run: as §1

[25] = compound: CS(=O)(=O)CCNCc1ccc(-c2ccc3ncnc(Nc4ccc(OCc5cccc(F)c5)c(Cl)c4)c3c2)o1 [Lapatinib]; details: max 10 µM
How it was run: as §1

[26] = compound: CC(C)n1c(=O)n(C)c2cnc3cc(F)c(-c4ccc(OCCCN5CCCCC5)nc4)cc3c21 [AZD1390]; details: max 0.3 µM
How it was run: as §1

[27] = compound: C[C@@H](Oc1cc(-c2cnn(C3CCNCC3)c2)cnc1N)c1c(Cl)ccc(F)c1Cl [Crizotinib]; details: max 10 µM
How it was run: as §1

| Cell Line | IC50, cell viability 72 h [1] | IC50, cell viability 72 h [2] | IC50, cell viability 72 h [3] | IC50, cell viability 72 h [4] | IC50, cell viability 72 h [5] | IC50, cell viability 72 h [6] | IC50, cell viability 72 h [7] | IC50, cell viability 72 h [8] | IC50, cell viability 72 h [9] | IC50, cell viability 72 h [10] | IC50, cell viability 72 h [11] | IC50, cell viability 72 h [12] | IC50, cell viability 72 h [13] | IC50, cell viability 72 h [14] | IC50, cell viability 72 h [15] | IC50, cell viability 72 h [16] | IC50, cell viability 72 h [17] | IC50, cell viability 72 h [18] | IC50, cell viability 72 h [19] | IC50, cell viability 72 h [20] | IC50, cell viability 72 h [21] | IC50, cell viability 72 h [22] | IC50, cell viability 72 h [23] | IC50, cell viability 72 h [24] | IC50, cell viability 72 h [25] | IC50, cell viability 72 h [26] | IC50, cell viability 72 h [27] |
| --- | --- | --- | --- | --- | --- | --- | --- | --- | --- | --- | --- | --- | --- | --- | --- | --- | --- | --- | --- | --- | --- | --- | --- | --- | --- | --- | --- |
| CHP-212 (Neuroblastoma) | 0.221 µM | 0.012 µM | > 3 µM | 1.83 µM | > 3 µM | > 10 µM | 0.0175 µM | > 1 µM | > 0.001 µM | > 10 µM | 0.0596 µM | 0.0592 µM | 0.254 µM | 0.257 µM | < 0.001 µM | > 10 µM | 0.0643 µM | 3.36 µM | > 1 µM | 0.169 µM | > 1 µM | 0.0515 µM | > 10 µM | 1.08 µM | > 10 µM | > 0.3 µM | 2.07 µM |
| COLO-678 (Colorectal Carcinoma) | > 3 µM | 3.44 µM | > 3 µM | > 10 µM | > 3 µM | > 10 µM | > 0.3 µM | > 1 µM | > 0.001 µM | > 10 µM | > 2 µM | > 1 µM | > 1 µM | > 1 µM | 0.264 µM | > 10 µM | > 10 µM | > 10 µM | > 1 µM | > 1 µM | > 1 µM | > 1 µM | > 10 µM | > 10 µM | > 10 µM | > 0.3 µM | > 10 µM |
| DiFi (Colorectal Carcinoma) | 1.42 µM | 7.26 µM | > 3 µM | 3.53 µM | > 3 µM | > 10 µM | 0.0333 µM | > 1 µM | > 0.001 µM | > 10 µM | > 2 µM | 0.403 µM | 0.961 µM | > 1 µM | 0.0428 µM | 0.0524 µM | 5.96 µM | > 10 µM | > 1 µM | 0.595 µM | > 1 µM | 0.0167 µM | > 10 µM | 0.606 µM | 0.315 µM | > 0.3 µM | > 10 µM |
| EVSA-T (Breast Carcinoma) | > 3 µM | > 10 µM | 0.199 µM | > 10 µM | > 3 µM | > 10 µM | > 0.3 µM | > 1 µM | > 0.001 µM | 0.289 µM | > 2 µM | 0.0652 µM | > 1 µM | 0.0561 µM | > 1 µM | > 10 µM | 6.35 µM | > 10 µM | > 1 µM | > 1 µM | > 1 µM | > 1 µM | > 10 µM | 1.05 µM | 4.49 µM | > 0.3 µM | 3.36 µM |
| HDQ-P1 (Breast Carcinoma) | 0.565 µM | > 10 µM | > 3 µM | > 10 µM | > 3 µM | > 10 µM | 0.0958 µM | > 1 µM | > 0.001 µM | > 10 µM | 0.103 µM | > 1 µM | > 1 µM | > 1 µM | > 1 µM | > 10 µM | > 10 µM | > 10 µM | > 1 µM | > 1 µM | > 1 µM | 0.53 µM | > 10 µM | 4.57 µM | > 10 µM | > 0.3 µM | > 10 µM |
| HL-60 (Acute Myeloid Leukemia) | 1.67 µM | 0.642 µM | > 3 µM | 7.32 µM | > 3 µM | > 10 µM | 0.00604 µM | 0.0803 µM | > 0.001 µM | > 10 µM | > 2 µM | 0.037 µM | 0.159 µM | 0.0357 µM | 0.0124 µM | > 10 µM | 0.407 µM | > 10 µM | 0.0327 µM | 0.0306 µM | > 1 µM | 0.0166 µM | > 10 µM | > 10 µM | > 10 µM | > 0.3 µM | 5.82 µM |
| KARPAS-45 (T-Lymphoblastic Leukemia) | 0.243 µM | > 10 µM | > 3 µM | 3.14 µM | > 3 µM | > 10 µM | > 0.3 µM | > 1 µM | > 0.001 µM | 3.21 µM | 0.937 µM | 0.0251 µM | > 1 µM | 0.0931 µM | > 1 µM | 9.06 µM | 0.0863 µM | 0.624 µM | 0.0521 µM | 0.00687 µM | > 1 µM | 0.0336 µM | > 10 µM | 1.45 µM | 4.37 µM | > 0.3 µM | 1.17 µM |
| KCL-22 (Chronic Myelogenous Leukemia) | 0.525 µM | > 10 µM | > 3 µM | 0.927 µM | > 3 µM | > 10 µM | 0.0379 µM | > 1 µM | > 0.001 µM | > 10 µM | < 0.002 µM | 0.273 µM | 0.335 µM | 0.369 µM | 0.915 µM | > 10 µM | 8.16 µM | > 10 µM | > 1 µM | > 1 µM | > 1 µM | 0.0138 µM | > 10 µM | > 10 µM | > 10 µM | > 0.3 µM | 2.01 µM |
